Structures are written as SMILES. Starred links: 1 amine or outer side, 2 acyl side, 3 side chain; linkers in the order of their positions; H or OH if unused. Positions of bridges follow the written chain, without caps; N, C: chain ends. Non-standard residues stand in square brackets, D forms with d. Residues, ends and D or L forms follow the SMILES beside them. Groups on a side chain read outwards from the residue. *: point of attachment. C18 diacid = O=C(O)CCCCCCCCCCCCCCCCC(=O)*; Dip = N[C@H](C(=O)O)C(c1ccccc1)c1ccccc1; γGlu = O=C(O)[C@H](CCC(=O)[*:2])N[*:1]; Palmitoyl = CCCCCCCCCCCCCCCC(=O)*; NMeF = CN[C@@H](Cc1ccccc1)C(=O)O; NMeT = CN[C@H](C(=O)O)[C@@H](C)O; β3hF = N[C@H](CC(=O)O)Cc1ccccc1; NMeK = CN[C@@H](CCCCN)C(=O)O; Pen = CC(C)(S)[C@H](N)C(=O)O; dNMeK = CN[C@H](CCCCN)C(=O)O; Isovaleryl = CC(C)CC(=O)*; NMeC = CN[C@@H](CS)C(=O)O; hCys = N[C@@H](CCS)C(=O)O; Dap = NC[C@H](N)C(=O)O; AEEA = NCCOCCOCC(=O)O; Ahx = NCCCCCC(=O)O

One test addresses T1, ferroportin (Homo sapiens, UniProt Q9NP59).
T1 sequence (Q9NP59 1-571): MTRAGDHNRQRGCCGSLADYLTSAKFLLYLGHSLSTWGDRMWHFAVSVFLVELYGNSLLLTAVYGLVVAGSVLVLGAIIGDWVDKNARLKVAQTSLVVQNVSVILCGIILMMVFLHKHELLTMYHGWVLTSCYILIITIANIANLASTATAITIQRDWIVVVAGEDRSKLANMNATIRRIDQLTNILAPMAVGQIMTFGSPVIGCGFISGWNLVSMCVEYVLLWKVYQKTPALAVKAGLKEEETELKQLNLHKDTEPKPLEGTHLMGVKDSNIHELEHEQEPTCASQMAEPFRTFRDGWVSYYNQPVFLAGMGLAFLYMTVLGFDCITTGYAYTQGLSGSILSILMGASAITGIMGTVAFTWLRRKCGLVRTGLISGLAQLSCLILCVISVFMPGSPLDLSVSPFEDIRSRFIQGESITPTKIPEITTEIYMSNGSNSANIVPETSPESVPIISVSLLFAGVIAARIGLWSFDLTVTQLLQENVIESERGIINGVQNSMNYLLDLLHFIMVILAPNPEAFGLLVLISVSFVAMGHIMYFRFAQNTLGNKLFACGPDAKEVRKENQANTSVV
Briefly: FPN activity assay: ferroportin-GFP internalization/degradation in HEK293 cells. The class given is cell-based. Particulars: Table 6D; ferroportin-GFP internalization/degradation, at least 18 hours incubation; read-out: FPN IC50. More on the design: expressed in transfected cells. How it is done:
Following internalization, the ferroporin protein is degraded.
A retro inverse peptide is a peptide with a reversed sequence in all D amino acids. An example is that Hy-Glu-Thr-His-NH2 becomes Hy-DHis-DThr-DGlu-NH2. The EC50 of these reference compounds for ferroportin internalization/degradation was determined according to the FPN activity assay described above. These peptides served as control standards.
In the case of `CCCCCCCCCCCCCCCC(=O)NCCCCCC(=O)NCCCC[C@H](NC(=O)C[C@H](Cc1ccccc1)NC(=O)[C@@H](CCCCN)NC(=O)[C@@H](NC(=O)[C@@H]1CSSC[C@H](NC(=O)[C@H](CCC(=O)O)NC(=O)CC(C)C)C(=O)N[C@@H](Cc2c[nH]cn2)C(=O)N[C@@H](C(c2ccccc2)c2ccccc2)C(=O)N2CCC[C@H]2C(=O)N1)[C@@H](C)CC)C(=O)N[C@H](CCCCN)C(N)=O` [compound 134] (Isovaleryl-ECH[Dip]PCI[dK][β3hF]K([Ahx-Palmitoyl])[dK]-NH2; disulfide 2-6), the DC50 fell in the range of 0.01 to 0.1 µM.

The same test, now with this note: Table 6E; ferroportin-GFP internalization/degradation, at least 18 hours incubation; read-out: FPN IC50.
For the compound `COC(=O)CC[C@H](NC(=O)CC(C)C)C(=O)N(C)[C@H](C(=O)N[C@@H](Cc1c[nH]cn1)C(=O)N[C@H](C(=O)N1CCC[C@H]1C(=O)N[C@H]1CSSC[C@@H](C(=O)N(C)[C@@H](Cc2ccccc2)C(N)=O)NC1=O)C(c1ccccc1)c1ccccc1)[C@@H](C)O` [compound 184] (Isovaleryl-E(OMe)[NMeT]H[Dip]PCC[NMeF]-NH2; disulfide 6-7), the DC50 is over 0.5 µM.

The test is the same for the next values; noted with them: ferroportin-GFP HEK293 cells, at least 18 hours; read-out: FPN IC50.
Consider `CCCCCCCCCCCCCCCC(=O)NCCCCCC(=O)NCCCC[C@H](NC(=O)C[C@H](Cc1ccccc1)NC(=O)[C@@H](CCCCN)NC(=O)[C@@H](NC(=O)[C@H](C)NC(=O)[C@H]1CSSC[C@H](NC(=O)[C@H](CCC(=O)O)NC(=O)CC(C)C)C(=O)N[C@@H](Cc2c[nH]cn2)C(=O)N[C@@H](C(c2ccccc2)c2ccccc2)C(=O)N1)[C@@H](C)CC)C(=O)N[C@H](CCCCN)C(=O)N[C@@H](C)C(N)=O` [Compd 46] (Isovaleryl-ECH[Dip][dC]AI[dK][β3hF]K([Ahx-Palmitoyl])[dK]A-NH2; disulfide 2-5), for which the DC50 lay within 0.001 to 0.01 µM. The same measure, in the same setting: the value for `CCCCCCCCCCCCCCCC(=O)NCCCCCC(=O)NCCCC[C@H](NC(=O)C[C@H](Cc1ccccc1)NC(=O)[C@@H](CCCCN)NC(=O)[C@@H](NC(=O)[C@@H]1CSSC[C@H](NC(=O)[C@@H](NC(=O)[C@H](CCC(=O)O)NC(=O)CC(C)C)[C@@H](C)O)C(=O)N[C@@H](C(c2ccccc2)c2ccccc2)C(=O)N2CCC[C@H]2C(=O)N1)[C@@H](C)CC)C(=O)N[C@H](CCCCN)C(N)=O` [Compd ID 2, Isovaleric Acid-E-T-[Cys]-[Dpa]-P-[Cys]-I-[(D)Lys]-[bhPhe]-[Lys(Ahx_Palm)]-[(D)Lys]-NH2] (Isovaleryl-ETC[Dip]PCI[dK][β3hF]K([Ahx-Palmitoyl])[dK]-NH2; disulfide 3-6) was 0.1 to 0.5 µM; that for `CCCCCCCCCCCCCCCC(=O)NCCCCCC(=O)NCCCC[C@H](NC(=O)[C@@H](NC(=O)[C@@H]1CSSCC[C@H](NC(=O)CC(C)C)C(=O)N[C@@H](CCC(=O)O)C(=O)N[C@@H]([C@@H](C)O)C(=O)N[C@@H](Cc2c[nH]cn2)C(=O)N[C@@H](C(c2ccccc2)c2ccccc2)C(=O)N2CCC[C@H]2C(=O)N1)[C@@H](C)CC)C(=O)N[C@H](CC(N)=O)Cc1ccccc1` [Compd 13] (Isovaleryl-[hCys]ETH[Dip]PCIK([Ahx-Palmitoyl])[β3hF]-NH2; disulfide 1-7) was 0.1 to 0.5 µM; that for `CCCCCCCCCCCCCCCC(=O)NCCCCCC(=O)NCCCC[C@H](NC(=O)C[C@H](Cc1ccccc1)NC(=O)[C@@H]1CSSC[C@@H](NC(=O)CC(C)C)C(=O)N[C@@H]([C@@H](C)O)C(=O)N[C@@H](Cc2c[nH]cn2)C(=O)N[C@@H](C(c2ccccc2)c2ccccc2)C(=O)N2CCC[C@H]2C(=O)N[C@@H](C)C(=O)N[C@@H]([C@@H](C)CC)C(=O)N1)C(=O)N[C@H](CCCCN)C(N)=O` [compound 107] (Isovaleryl-[dC]TH[Dip]PAIC[β3hF]K([Ahx-Palmitoyl])[dK]-NH2; disulfide 1-8) was 0.01 to 0.1 µM. For `CC[C@H](C)[C@H](NC(=O)[C@@H]1CSSC[C@H](NC(=O)[C@H](Cc2c[nH]cn2)NC(=O)[C@@H](NC(=O)[C@H](CCC(=O)O)NC(=O)CC(C)C)[C@@H](C)O)C(=O)N2CCC[C@H]2C(=O)N1)C(=O)N[C@@H](CCCCNC(=O)COCCOCCNC(=O)COCCOCCNC(=O)CC[C@H](NC(=O)CCCCCCCCCCCCCCCCC(=O)O)C(=O)O)C(=O)N[C@H](CC(=O)N[C@H](CCCCN)C(N)=O)Cc1ccccc1` [Compd 29] (Isovaleryl-ETHCPCIK([AEEA-AEEA-γGlu-C18 diacid])[β3hF][dK]-NH2; disulfide 4-6), the DC50 lay in the range of 0.1 to 0.5 µM. On to `CCCCCCCCCCCCCCCC(=O)NCCCCCC(=O)NCCCC[C@H](NC(=O)[C@@H](NC(=O)[C@@H]1CSSC[C@H](NC(=O)CC(C)C)C(=O)N[C@@H](CCC(=O)O)C(=O)N[C@@H]([C@@H](C)O)C(=O)N[C@@H](Cc2c[nH]cn2)C(=O)N[C@@H](C(c2ccccc2)c2ccccc2)C(=O)N2CCC[C@H]2C(=O)N1)[C@@H](C)CC)C(=O)N[C@H](CC(N)=O)Cc1ccccc1` [Compd 10] (Isovaleryl-CETH[Dip]PCIK([Ahx-Palmitoyl])[β3hF]-NH2; disulfide 1-7), for which the DC50 is 0.1 to 0.5 µM.

`CCCCCCCCCCCCCCCC(=O)NCCCCCC(=O)NCCCC[C@H](NC(=O)C[C@H](Cc1ccccc1)NC(=O)[C@H]1NC(=O)[C@H]([C@@H](C)CC)NC(=O)[C@H](C)NC(=O)[C@@H]2CCCN2C(=O)[C@H](C(c2ccccc2)c2ccccc2)NC(=O)[C@H](Cc2c[nH]cn2)NC(=O)[C@H]([C@@H](C)O)NC(=O)[C@@H](NC(=O)CC(C)C)CCSSC1(C)C)C(=O)N[C@H](CCCCN)C(N)=O` [compound 109] (Isovaleryl-[hCys]TH[Dip]PAI[Pen][β3hF]K([Ahx-Palmitoyl])[dK]-NH2; disulfide 1-8): the DC50 fell in the range of 0.01 to 0.1 µM. For the compound `CCCCCCCCCCCCCCCC(=O)NCCCCCC(=O)NCCCC[C@H](NC(=O)C[C@H](Cc1ccccc1)NC(=O)[C@@H](CCCCN)NC(=O)[C@@H](NC(=O)[C@@H]1CSSC[C@H](NC(=O)[C@@H](NC(=O)[C@H](Cc2c[nH]cn2)NC(=O)[C@@H](NC(=O)[C@H](CCC(=O)O)NC(=O)CC(C)C)[C@@H](C)O)C(c2ccccc2)c2ccccc2)C(=O)N1)[C@@H](C)CC)C(=O)N[C@H](CCCCN)C(N)=O` [Compd 4] (Isovaleryl-ETH[Dip]CCI[dK][β3hF]K([Ahx-Palmitoyl])[dK]-NH2; disulfide 5-6), the DC50 was 0.01 to 0.1 µM. As to `CC[C@H](C)[C@H](NC(=O)[C@@H]1CSSC[C@H](NC(=O)[C@@H](NC(=O)[C@H](Cc2c[nH]cn2)NC(=O)[C@@H](NC(=O)[C@H](CCC(=O)O)NC(=O)CC(C)C)[C@@H](C)O)C(c2ccccc2)c2ccccc2)C(=O)N1)C(=O)N[C@H](CCCCN)C(=O)N[C@H](CC(=O)N[C@@H](CCCCNC(=O)COCCOCCNC(=O)COCCOCCNC(=O)CCCCCNC(=O)CCCCCCCCCCCCCCCCC(=O)O)C(=O)N[C@H](CCCCN)C(N)=O)Cc1ccccc1` [Compd 25] (Isovaleryl-ETH[Dip]CCI[dK][β3hF]K([AEEA-AEEA-Ahx-C18 diacid])[dK]-NH2; disulfide 5-6), the DC50 was in the range of 0.1 to 0.5 µM.

Still in this test, the particulars now being: ferroportin-GFP internalization/degradation, HEK293 cells; Table 6E; read-out: FPN IC50.
For the compound `CC(C)CC(=O)N[C@@H](CCC(=O)O)C(=O)N[C@H](C(=O)N[C@@H](Cc1c[nH]cn1)C(=O)N[C@H](C(=O)N1CCC[C@H]1C(=O)N[C@H]1CSSC[C@@H](C(=O)N(C)[C@@H](CCCCNC(=O)COCCOCCNC(=O)COCCOCCNC(=O)[C@H](CN)NC(=O)CCCCCCCCCCCCCCCCC(=O)O)C(=O)N(C)[C@@H](Cc2ccccc2)C(=O)N(C)[C@@H](CCCCN)C(N)=O)N(C)C1=O)C(c1ccccc1)c1ccccc1)[C@@H](C)O` [compound 277] (Isovaleryl-ETH[Dip]PC[NMeC][NMeK]([AEEA-AEEA-Dap-C18 diacid])[NMeF][NMeK]-NH2; disulfide 6-7), the DC50 was in the range of 0.01 to 0.1 µM. `CC(C)CC(=O)N[C@@H](CCC(=O)O)C(=O)N[C@H](C(=O)N[C@@H](Cc1c[nH]cn1)C(=O)N[C@H](C(=O)N1CCC[C@H]1C(=O)N[C@H]1CSSC[C@@H](C(=O)N(C)[C@@H](CCCCNC(=O)COCCOCCNC(=O)COCCOCCNC(=O)[C@H](CN)NC(=O)CCCCCCCCCCCCCCCCC(=O)O)C(=O)N[C@H](CC(=O)N(C)[C@H](CCCCN)C(N)=O)Cc2ccccc2)NC1=O)C(c1ccccc1)c1ccccc1)[C@@H](C)O` [compound 276] (Isovaleryl-ETH[Dip]PCC[NMeK]([AEEA-AEEA-Dap-C18 diacid])[β3hF][dNMeK]-NH2; disulfide 6-7): the DC50 lay in the range of 0.01 to 0.1 µM. Same read-out and setting: for `CC(C)CC(=O)N[C@@H](CCC(=O)O)C(=O)N[C@H](C(=O)N[C@@H](Cc1c[nH]cn1)C(=O)N[C@H](C(=O)N1CCC[C@H]1C(=O)N[C@@H]1C(=O)N[C@H](C(=O)N(C)[C@@H](CCCCNC(=O)COCCOCCNC(=O)COCCOCCNC(=O)[C@H](CN)NC(=O)CCCCCCCCCCCCCCCCC(=O)O)C(=O)N[C@H](CC(=O)N[C@H](CCCCN)C(N)=O)Cc2ccccc2)C(C)(C)SSC1(C)C)C(c1ccccc1)c1ccccc1)[C@@H](C)O` [compound 273] (Isovaleryl-ETH[Dip]P[Pen][Pen][NMeK]([AEEA-AEEA-Dap-C18 diacid])[β3hF][dK]-NH2; disulfide 6-7) the value was 0.1 to 0.5 µM.

For the origin of these results see patent publication US20250277012A1 (Protagonist Therapeutics, Inc., priority 2021, published 2025).
